These are literature values, as cited in PMC4984525 (Cancer, 2011).

The series has as its system patients with resistant ovarian cancer. The conditions noted are these: preliminary results of a Phase 2 trial; cited from earlier work.

Turning to `Cc1ccc(C(=O)N(CCCN)[C@@H](c2nc3cc(Cl)ccc3c(=O)n2Cc2ccccc2)C(C)C)cc1` [ispinesib], the clinical activity entry is listed as “has clinical activity”.
